# Measured values from US7101886B2, “Phenylalkyl and pyridylalkyl piperazine derivatives” (Warner Lambert Company, priority 2002, dated 2006).
# Target: T1, serotonin 2A (5HT2A) receptor (Homo sapiens, UniProt P28223)
# T1 construct: expressed in transfected cells; host or cells: Swiss cells (Swiss-h5HT2A)
# Experiment: Serotonin 2A binding ([3H]ketanserin radioligand binding)
# Conditions: [3H]ketanserin binding, Swiss-h5HT2A cell membranes
# Source text: (§1) The ability of the compounds of this invention to bind to the dopamine D2 and serotonin 2A (5HT2A) receptors can be determined using conventional radioligand receptor binding assays. All receptors can be heterologously expressed in cell lines and experiments conducted in membrane preparations from the cell lines using procedures outlined below. IC50 concentrations can be determined by nonlinear regression of concentration-dependent reduction in specific binding. The Cheng-Prussoff equation can be used to convert the IC50 to Ki concentrations.
# [^3H] Ketanserin binding to Swiss-h5HT2A cell membranes can be carried out in 250 μl of 50 mM Tris-HCl buffer pH 7.4. Duplicate samples containing (in order of addition) test compounds, 1.0 nM [^3H]ketanserin, and approximately 75 μg protein are incubated for 120 minutes at room temperature. Bound radioligand is separated by rapid filtration under reduced pressure through Whatman GF/B glass fiber filters previously treated with 0.3% polyethyleneimine. Radioactivity retained on the filter is determined by liquid scintillation spectrophotometry.
# The title compounds of Examples 1–524 were tested using the above assay, in which specific binding determined in the presence of 1 mM ketanserin was 90%.
# T1 sequence (P28223 whole entry): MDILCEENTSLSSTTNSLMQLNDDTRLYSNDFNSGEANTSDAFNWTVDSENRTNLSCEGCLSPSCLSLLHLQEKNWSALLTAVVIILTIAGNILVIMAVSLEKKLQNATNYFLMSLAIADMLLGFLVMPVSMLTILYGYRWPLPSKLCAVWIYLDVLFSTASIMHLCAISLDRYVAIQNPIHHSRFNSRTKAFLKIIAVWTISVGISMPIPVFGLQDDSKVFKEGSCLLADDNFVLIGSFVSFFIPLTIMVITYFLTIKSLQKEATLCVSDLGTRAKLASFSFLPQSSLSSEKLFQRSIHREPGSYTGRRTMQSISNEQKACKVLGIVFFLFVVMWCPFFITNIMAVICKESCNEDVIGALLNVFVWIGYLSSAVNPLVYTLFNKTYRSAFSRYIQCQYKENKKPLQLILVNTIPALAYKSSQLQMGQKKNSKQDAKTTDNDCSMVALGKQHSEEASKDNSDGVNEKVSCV
row,Ki,SMILES
1,0.29 nM,"COc1cccc(S(=O)(=O)Nc2ccc(CCN3CCN(c4nsc5ccccc45)CC3)cc2)c1 [Example 364, N-{4-[2-(4-1,2-BENZISOTHIAZOL-3-YL-PIPERAZIN-1-YL)-ETHYL]-PHENYL}-3-METHOXY-BENZENESULFONAMIDE]"
2,0.25 nM,"Cc1cc(C(=O)Nc2ccc(CCN3CCN(c4nsc5ccccc45)CC3)cc2)n(C)n1 [Example 102, 2,5-DIMETHYL-2H-PYRAZOLE-3-CARBOXYLIC ACID {4-[2-(4-1,2-BENZISOTHIAZOL-3-YL-PIPERAZIN-1-YL)-ETHYL]-PHENYL}-AMIDE]"
3,1.46 nM,"Cc1cc(C(=O)Nc2ccc(CCN3CCN(c4nsc5ccccc45)CC3)cc2)c(C)o1 [Example 27, 2,5-DIMETHYL-FURAN-3-CARBOXYLIC ACID {4-[2-(4-1,2-BENZISOTHIAZOL-3-YL-PIPERAZIN-1-YL)-ETHYL]-PHENYL}-AMIDE]"

# Target: T2, dopamine D2 receptor (Homo sapiens, UniProt P14416)
# T2 construct: expressed in transfected cells; host or cells: CHO cells (CHO-hD2L), membrane preparation
# T2 sequence (P14416 whole entry): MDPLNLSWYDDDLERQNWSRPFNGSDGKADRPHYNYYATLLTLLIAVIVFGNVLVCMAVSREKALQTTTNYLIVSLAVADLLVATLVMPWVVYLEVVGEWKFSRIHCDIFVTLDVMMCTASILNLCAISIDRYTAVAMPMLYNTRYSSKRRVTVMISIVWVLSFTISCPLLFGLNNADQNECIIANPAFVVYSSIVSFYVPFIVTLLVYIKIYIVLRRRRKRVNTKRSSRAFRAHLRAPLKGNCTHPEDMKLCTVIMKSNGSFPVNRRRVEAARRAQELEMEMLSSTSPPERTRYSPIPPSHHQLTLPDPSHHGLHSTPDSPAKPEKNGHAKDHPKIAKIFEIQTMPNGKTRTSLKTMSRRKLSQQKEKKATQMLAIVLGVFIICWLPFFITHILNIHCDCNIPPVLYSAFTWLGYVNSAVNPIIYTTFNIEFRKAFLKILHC
# Experiment: Dopamine D2 receptor binding ([3H]spiperone radioligand binding)
# Conditions: [3H]spiperone binding, membrane preparation from CHO-hD2L cells
# Source text: as §1
# Dopamine D2 Receptor Binding:
# [^3H]Spiperone binding to a membrane preparation from CHO-hD2L cells is carried out in 250 μl of 50 mM Tris-HCl buffer containing 100 mM NaCl, 1 mM MgCl2 and 1% DMSO at pH 7.4. Duplicate samples containing (in order of addition) the test compounds, 0.4 nM [^3H]spiperone and approximately 12 μg protein are incubated for 120 minutes at room temperature. Bound radioligand is separated by rapid filtration under reduced pressure through Whatman GF/B glass fiber filters previously treated with 0.3% polyethyleneimine. Radioactivity retained on the filter is determined by liquid scintillation spectrophotometry.
# The title compounds of Examples 1–524 were tested using the above assay, in which specific binding determined in the presence of 1 mM haloperidol was 95%.
row,Ki,SMILES
1,8.58 nM,"COc1cccc(S(=O)(=O)Nc2ccc(CCN3CCN(c4nsc5ccccc45)CC3)cc2)c1 [Example 364, N-{4-[2-(4-1,2-BENZISOTHIAZOL-3-YL-PIPERAZIN-1-YL)-ETHYL]-PHENYL}-3-METHOXY-BENZENESULFONAMIDE]"
2,8.2 nM,"Cc1cc(C(=O)Nc2ccc(CCN3CCN(c4nsc5ccccc45)CC3)cc2)n(C)n1 [Example 102, 2,5-DIMETHYL-2H-PYRAZOLE-3-CARBOXYLIC ACID {4-[2-(4-1,2-BENZISOTHIAZOL-3-YL-PIPERAZIN-1-YL)-ETHYL]-PHENYL}-AMIDE]"
3,6.32 nM,"Cc1cc(C(=O)Nc2ccc(CCN3CCN(c4nsc5ccccc45)CC3)cc2)c(C)o1 [Example 27, 2,5-DIMETHYL-FURAN-3-CARBOXYLIC ACID {4-[2-(4-1,2-BENZISOTHIAZOL-3-YL-PIPERAZIN-1-YL)-ETHYL]-PHENYL}-AMIDE]"

# Test system: not given
# Experiment: not given
# Conditions: not given
row,melting point,SMILES
1,187 °C,"COc1cc(CCN2CCN(c3nsc4ccccc34)CC2)c(NS(=O)(=O)c2ccccc2C)cc1OC [Example 58, N-{2-[2-(4-1,2-BENZISOTHIAZOL-3-YL-PIPERAZIN-1-YL)-ETHYL]-4,5-DIMETHOXY-PHENYL}-2-METHYL-BENZENESULFONAMIDE]"
2,120 °C,CC(=O)Nc1ccc(S(=O)(=O)Nc2ccc(OCCN3CCN(c4nsc5ccccc45)CC3)cc2)cc1
3,65 °C,"O=S(=O)(Nc1ccc(OCCN2CCN(c3nsc4ccccc34)CC2)cc1)c1ccccc1 [Example 47, N-{4-[2-(4-1,2-BENZISOTHIAZOL-3-YL-PIPERAZIN-1-YL)-ETHOXY]-PHENYL}-BENZENESULFONAMIDE]"
4,196 °C,COc1cc(CCN2CCN(c3nsc4ccccc34)CC2)c(NS(=O)(=O)c2c(C)nn(C)c2C)cc1OC
5,211 °C,"COc1cc(CCN2CCN(c3nsc4ccccc34)CC2)c(NC(=O)Nc2ccc(F)cc2)cc1OC [Example 62, 1-{2-[2-(4-1,2-BENZISOTHIAZOL-3-YL-PIPERAZIN-1-YL)-ETHYL]-4,5-DIMETHOXY-PHENYL}-3-(4-FLUORO-PHENYL)-UREA]"
6,176 °C,"Cn1cnc(S(=O)(=O)Nc2ccc(OCCN3CCN(c4nsc5ccccc45)CC3)cc2)c1 [Example 44, 1-METHYL-1H-IMIDAZOLE-4-SULFONIC ACID {4-[2-(4-1,2-BENZISOTHIAZOL-3-YL-PIPERAZIN-1-YL)-ETHOXY]-PHENYL}-AMIDE]"
7,175 °C,"CC(C)=CC(=O)Nc1ccc(F)cc1CCN1CCN(c2nsc3ccccc23)CC1 [Example 64, 3-METHYL-BUT-2-ENOIC ACID {2-[2-(4-1,2-BENZISOTHIAZOL-3-YL-PIPERAZIN-1-YL)-ETHYL]-4-FLUORO-PHENYL}-AMIDE]"
8,233 °C,COc1cc(CCN2CCN(c3nsc4ccccc34)CC2)c(NS(=O)(=O)c2cn(C)c(C)n2)cc1OC
9,52 °C,"CC(C)=CC(=O)Nc1ccccc1CCN1CCN(c2nsc3ccccc23)CC1 [Example 50, 3-METHYL-BUT-2-ENOIC ACID {2-[2-(4-1,2-BENZISOTHIAZOL-3-YL-PIPERAZIN-1-YL)-ETHYL]-PHENYL}-AMIDE]"
10,135 °C,COc1cc(CCN2CCN(c3nsc4ccccc34)CC2)c(NC(=O)Cc2cccs2)cc1OC
11,58 °C,"COc1cc(CCN2CCN(c3nsc4ccccc34)CC2)c(NC(=O)C=C(C)C)cc1OC [Example 65, 3-M ETHYL-BUT-2-ENOIC ACID {2-[2-(4-1,2-BENZISOTHIAZOL-3-YL-PIPERAZIN-1-YL)-ETHYL]-4,5-DIMETHOXY-PHENYL}-AMIDE]"
12,207.6 to 208 °C,"O=C1c2ccccc2CN1c1ccccc1CCN1CCN(c2nsc3ccccc23)CC1 [Example 529, 2-{2-[2-(4-BENZO[D]ISOTHIAZOL-3-YL-PIPERAZIN-1-YL)-ETHYL]-PHENYL}-2,3-DIHYDRO-ISOINDOL-1-ONE]"
13,156 °C,"COc1cc(CCN2CCN(c3nsc4ccccc34)CC2)c(NC(=O)NC2CCCCC2)cc1OC [Example 63, 1-{2-[2-(4-1,2-BENZISOTHIAZOL-3-YL-PIPERAZIN-1-YL)-ETHYL]-4,5-DIMETHOXY-PHENYL}-3-CYCLOHEXYL-UREA]"
14,90 °C,CC(=O)OC(C)C(=O)Nc1ccc(OCCN2CCN(c3nsc4ccccc34)CC2)cc1 (centres unmarked)
15,142 °C,O=C(Cc1cccs1)Nc1ccc(OCCN2CCN(c3nsc4ccccc34)CC2)cc1
16,78 °C,"COc1ccc(OC)c(S(=O)(=O)Nc2ccc(OCCN3CCN(c4nsc5ccccc45)CC3)cc2)c1 [Example 46, N-{4-[2-(4-1,2-BENZISOTHIAZOL-3-YL-PIPERAZIN-1-YL)-ETHOXY]-PHENYL}-2,5-DIMETHOXY-BENZENESULFONAMIDE]"
17,152 °C,COc1cc(CCN2CCN(c3nsc4ccccc34)CC2)c(NC(=O)Cc2ccc(Cl)cc2)cc1OC
18,85 °C,Cc1nn(C)c(Cl)c1S(=O)(=O)Nc1ccc(OCCN2CCN(c3nsc4ccccc34)CC2)cc1
19,175.9 °C,"O=C1c2ccccc2CN1c1ccc(CCN2CCN(c3nsc4ccccc34)CC2)cc1 [Example 527, 2-{4-[2-(4-BENZO[D]ISOTHIAZOL-3-YL-PIPERAZIN-1-YL)-ETHYL]-PHENYL}-2,3-DIHYDRO-ISOINDOL-1-ONE]"
20,166.4 to 166.6 °C,"O=C1c2ccccc2CN1c1ccc(OCCN2CCN(c3nsc4ccccc34)CC2)cc1 [Example 530, 2-{4-[2-(4-BENZO[D]ISOTHIAZOL-3-YL-PIPERAZIN-1-YL)-ETHOXY]-PHENYL}-2,3-DIHYDRO-ISOINDOL-1-ONE]"
21,154.5 to 155.3 °C,"O=C1c2ccccc2CN1c1cccc(CCN2CCN(c3nsc4ccccc34)CC2)c1 [Example 528, 2-{3-[2-(4-BENZO[D]ISOTHIAZOL-3-YL-PIPERAZIN-1-YL)-ETHYL]-PHENYL}-2,3-DIHYDRO-ISOINDOL-1-ONE]"
22,142 °C,COc1cc(CCN2CCN(c3nsc4ccccc34)CC2)c(NC(=O)Cc2ccccc2)cc1OC
23,120 °C,COc1cc(CCN2CCN(c3nsc4ccccc34)CC2)c(NC(C)=O)cc1OC
24,167 °C,"COc1cc(CCN2CCN(c3nsc4ccccc34)CC2)c(NS(=O)(=O)c2ccccc2F)cc1OC [Example 56, N-{2-[2-(4-1,2-BENZISOTHIAZOL-3-YL-PIPERAZIN-1-YL)-ETHYL]-4,5-DIMETHOXY-PHENYL}-2-FLUORO-BENZENESULFONAMIDE]"
25,96 °C,COc1cc(CCN2CCN(c3nsc4ccccc34)CC2)c(NC(=O)Nc2c(C)cccc2C)cc1OC
26,227 °C,Cc1nc(S(=O)(=O)Nc2ccc(OCCN3CCN(c4nsc5ccccc45)CC3)cc2)cn1C
